Patent US12552752B2, “Atropisomers of pyridazinone derivatives as herbicides” (FMC Corporation, priority 2020, dated 2026)
Where “and” joins values, the source holds several entries; their conditions need not be identical. Equal values may be shown once.

What was measured:
Type in all cases: in vivo
corn (CPI, Zea mays) = experiment: Test A postemergence, corn; conditions: POST, 0 to 100 scale, approximately 10 d
Description: (§1) Seeds of plant species selected from barnyardgrass (BYG, Echinochloa crus-galli), kochia (KOC, Kochia scoparia), ragweed (common ragweed, Ambrosia elatior), ryegrass, Italian (RGI, Lolium multiflorum), foxtail, giant (FTI, Setaria faberii), foxtail, green (Setaria viridis) and pigweed (PWR, Amaranthus retroflexus) were planted into a blend of loam soil and sand and treated preemergence with a directed soil spray using test chemicals formulated in a non-phytotoxic solvent mixture which included a surfactant. At the same time, plants selected from these weed species and also wheat (WWT, Triticum aestivum), corn (CPI, Zea mays), blackgrass (BKG, Alopecurus myosuroides) and galium (GAL, catchweed bedstraw, Galium aparine) were planted in pots containing the same blend of loam soil and sand and treated with postemergence applications of test chemicals formulated in the same manner Plants ranged in height from 2 to 10 cm and were in the one- to two-leaf stage for the postemergence treatment. Treated plants and untreated controls were maintained in a greenhouse for approximately 10 d, after which time all treated plants were compared to untreated controls and visually evaluated for injury. Plant response ratings, summarized in Tables 1-4, are based on a 0 to 100 scale where 0 is no effect and 100 is complete control. A dash (−) response means no test result. The ratings are followed by a letter representing the symptomology where S is Albinism, C is Chlorosis, G is Growth Inhibition and E is Emergence.

[1] = system: wheat (WWT, Triticum aestivum); experiment: Test A postemergence, wheat; conditions: POST, 0 to 100 scale, approximately 10 d, listed as drawing 31
Description: as §1

[2] = system: galium (GAL, catchweed bedstraw, Galium aparine); experiment: Test A postemergence, galium; conditions: POST, 0 to 100 scale, approximately 10 d
Description: as §1

[3] = system: kochia (KOC, Kochia scoparia); experiment: Test A postemergence, kochia; conditions: POST, 0 to 100 scale, approximately 10 d
Description: as §1

[4] = system: pigweed (PWR, Amaranthus retroflexus); experiment: Test A postemergence, pigweed; conditions: POST, 0 to 100 scale, approximately 10 d
Description: as §1

[5] = system: ragweed (common ragweed, Ambrosia elatior); experiment: Test A postemergence, ragweed; conditions: POST, 0 to 100 scale, approximately 10 d
Description: as §1

[6] = system: blackgrass (BKG, Alopecurus myosuroides); experiment: Test A postemergence, blackgrass; conditions: POST, 0 to 100 scale, approximately 10 d, listed as drawing 31
Description: as §1

[7] = system: ryegrass, Italian (RGI, Lolium multiflorum); experiment: Test A postemergence, Italian ryegrass; conditions: POST, 0 to 100 scale, approximately 10 d, listed as drawing 31
Description: as §1

[8] = system: barnyardgrass (BYG, Echinochloa crus-galli); experiment: Test A postemergence, barnyardgrass; conditions: POST, 0 to 100 scale, approximately 10 d, listed as drawing 31
Description: as §1

[9] = system: foxtail, giant (FTI, Setaria faberii); experiment: Test A postemergence, giant foxtail; conditions: POST, 0 to 100 scale, approximately 10 d, listed as drawing 31
Description: as §1

[10] = system: kochia (KOC, Kochia scoparia); experiment: Test A preemergence, kochia; conditions: PRE, 0 to 100 scale, approximately 10 d
Description: as §1

[11] = system: pigweed (PWR, Amaranthus retroflexus); experiment: Test A preemergence, pigweed; conditions: PRE, 0 to 100 scale, approximately 10 d
Description: as §1

[12] = system: ragweed (common ragweed, Ambrosia elatior); experiment: Test A preemergence, ragweed; conditions: PRE, 0 to 100 scale, approximately 10 d, listed as drawing 31
Description: as §1

[13] = system: ryegrass, Italian (RGI, Lolium multiflorum); experiment: Test A preemergence, Italian ryegrass; conditions: PRE, 0 to 100 scale, approximately 10 d
Description: as §1

[14] = system: barnyardgrass (BYG, Echinochloa crus-galli); experiment: Test A preemergence, barnyardgrass; conditions: PRE, 0 to 100 scale, approximately 10 d
Description: as §1

[15] = system: foxtail, giant (FTI, Setaria faberii); experiment: Test A preemergence, giant foxtail; conditions: PRE, 0 to 100 scale, approximately 10 d
Description: as §1

[16] = 31 g ai/ha, listed as drawing 31
[17] = 16 g ai/ha, listed as drawing 31
[18] = 62 g ai/ha, listed as drawing 31
[19] = 125 g ai/ha, listed as drawing 31

CCC(=O)Oc1c(Cl)nn(C)c(=O)c1-c1c(C)ccc2ccccc12 (racemic) [5 (Enantiomer 5A)]
20 S and 30 S: Plant response rating FTI ([9]; 125 g ai/ha)
60 C and 100 C: Plant response rating PWR ([11]; 31 g ai/ha)
80 S: Plant response rating KOC [3, 18] | Plant response rating PWR [4, 17] | Plant response rating RWC [5, 17] | Plant response rating KOC [10, 19]
100 C and 90 C: Plant response rating RWC ([12]; 125 g ai/ha)
90 C: Plant response rating PWR [11, 18] | Plant response rating RWC ([12]; 62 g ai/ha)
90 S: Plant response rating GAL ([2]; 16 g ai/ha) | Plant response rating GAL [2, 16] | Plant response rating PWR ([4]; 31 g ai/ha) | Plant response rating PWR ([4]; 62 g ai/ha) | Plant response rating PWR [4, 19] | Plant response rating RWC ([5]; 31 g ai/ha) | Plant response rating RWC ([5]; 62 g ai/ha) | Plant response rating RWC [5, 19]
0: Plant response rating CPI (corn (CPI, Zea mays); 16 g ai/ha) | Plant response rating CPI (corn (CPI, Zea mays); [16]) | Plant response rating CPI (corn (CPI, Zea mays); 62 g ai/ha) | Plant response rating WWT ([1]; 16 g ai/ha) | Plant response rating WWT ([1]; 31 g ai/ha) | Plant response rating WWT ([1]; 62 g ai/ha) | Plant response rating WWT ([1]; 125 g ai/ha) | Plant response rating BKG ([6]; 16 g ai/ha) | Plant response rating BKG ([6]; 31 g ai/ha) | Plant response rating BKG ([6]; 62 g ai/ha) | Plant response rating BYG ([8]; 16 g ai/ha) | Plant response rating BYG ([8]; 62 g ai/ha) | Plant response rating RWC ([12]; 16 g ai/ha) | Plant response rating RGI ([13]; 16 g ai/ha) | Plant response rating RGI ([13]; 31 g ai/ha) | Plant response rating RGI [13, 18] | Plant response rating BYG ([14]; 16 g ai/ha) | Plant response rating BYG ([14]; 31 g ai/ha) | Plant response rating BYG ([14]; 62 g ai/ha) | Plant response rating FTI ([15]; 16 g ai/ha) | Plant response rating FTI [15, 18]
30 S and 20 S: Plant response rating BYG ([8]; 125 g ai/ha) | Plant response rating RGI [13, 19]
70 S: Plant response rating KOC [3, 17] | Plant response rating KOC ([3]; 31 g ai/ha) | Plant response rating KOC [10, 18]
10 S: Plant response rating RGI ([7]; 16 g ai/ha) | Plant response rating FTI ([9]; 31 g ai/ha) | Plant response rating FTI ([9]; 62 g ai/ha)
100 S: Plant response rating GAL ([2]; 62 g ai/ha) | Plant response rating GAL ([2]; 125 g ai/ha)
10 C: Plant response rating FTI ([9]; 16 g ai/ha) | Plant response rating KOC ([10]; 16 g ai/ha) | Plant response rating PWR [11, 17]
50 S: Plant response rating RGI ([7]; 62 g ai/ha)
80 S and 70 S: Plant response rating KOC [3, 19]
